Patent US20260364215A1, “Radiopharmaceutical Compositions Targeting Ephrin Type-A Receptor 2 and Uses Thereof” (PeptiDream Inc., priority 2022, published 2026)
Numbered stars: 1 amine (or outer) side, 2 acyl side, 3 side chain; on linkers, the order of the positions; unused ones are H or OH. Bridge positions count the residues as written; N and C are the ends. Square brackets hold non-standard residues; d marks the D form. Side chains are listed from the residue outwards. Peptide text beside a SMILES is read from it. * marks the point of attachment. DOTA(Lu) = O=C1CN2CCN3CCN(CC(=O)*)CCN(CC2)CC(=O)[O][Lu]([O]1)[O]C(=O)C3; NH(1-deoxy-D-glucityl) = OC[C@@H](O)[C@@H](O)[C@H](O)[C@@H](O)CN*; DOTA = O=C(O)CN1CCN(CC(=O)O)CCN(CC(=O)*)CCN(CC(=O)O)CC1; Trp(1-Me,7-Cl) = Cn1cc(C[C@H](N)C(=O)O)c2cccc(Cl)c21; dPhe(3-CONH2) = NC(=O)c1cccc(C[C@@H](N)C(=O)O)c1; Piperazinyl(4-CH2COOH) = O=C(O)CN1CCN(*)CC1; Trp(1-Me) = Cn1cc(C[C@H](N)C(=O)O)c2ccccc21; NMe3Pal = CN[C@@H](Cc1cccnc1)C(=O)O; NMeF = CN[C@@H](Cc1ccccc1)C(=O)O; hCit = NC(=O)NCCCC[C@H](N)C(=O)O; Gly(cBu) = N[C@H](C(=O)O)C1CCC1; NMeE = CN[C@@H](CCC(=O)O)C(=O)O; Aad = N[C@@H](CCCC(=O)O)C(=O)O; Cit = NC(=O)NCCC[C@H](N)C(=O)O; NMeN = CN[C@@H](CC(N)=O)C(=O)O; CO = O=C([*:1])[*:2]

molecular target: T1, Recombinant Human EphA2 Fc Protein (Homo sapiens, UniProt P29317); assay: Interaction analysis (kinetics, KD) of peptides and conjugates against EphA2 by SPR, Biacore T200, single-cycle kinetics (Examples B15 and B22); type: binding; details: not given
T1 construct: purchased Elabscience
Protocol: Example B15. Interaction Analysis by SPR was Performed Using Biacore (Cytiva)
SPR assay was performed using Biacore T200 (Cytiva).
The HBS-P+ buffer (10 mM HEPES (pH7.4), 150 mM NaCl, 0.05% (v/v) Surfactant P20) containing 1% DMSO was used as running buffer. Recombinant Human EphA2 Fc Protein (Fc tag, Elabscience) was captured by Human Antibody Capture kit (Cytiva). Peptide samples in DMSO were diluted with running buffer, and prepared five serial dilutions. Using these serial dilutions, kinetics of peptides against EphA2 was measured at a flow rate of […] at 25 °C. The method adopted for sample measurement was a single-cycle kinetics method. The analysis was conducted using the evaluation software 3.0 provided with Biacore T200. Kinetics fitting was done on the difference data obtained by subtracting the baseline data from sample measurement data. KD values were calculated based on the association rate constant (ka) and dissociation rate constant (kd).
Example B22: Interaction Analysis of Conjugates by SPR was Performed Using Biacore (Cytiva)
SPR assay was performed using Biacore T200 (Cytiva) according to Example B15.

T1 sequence (P29317 24-534 limits assumed): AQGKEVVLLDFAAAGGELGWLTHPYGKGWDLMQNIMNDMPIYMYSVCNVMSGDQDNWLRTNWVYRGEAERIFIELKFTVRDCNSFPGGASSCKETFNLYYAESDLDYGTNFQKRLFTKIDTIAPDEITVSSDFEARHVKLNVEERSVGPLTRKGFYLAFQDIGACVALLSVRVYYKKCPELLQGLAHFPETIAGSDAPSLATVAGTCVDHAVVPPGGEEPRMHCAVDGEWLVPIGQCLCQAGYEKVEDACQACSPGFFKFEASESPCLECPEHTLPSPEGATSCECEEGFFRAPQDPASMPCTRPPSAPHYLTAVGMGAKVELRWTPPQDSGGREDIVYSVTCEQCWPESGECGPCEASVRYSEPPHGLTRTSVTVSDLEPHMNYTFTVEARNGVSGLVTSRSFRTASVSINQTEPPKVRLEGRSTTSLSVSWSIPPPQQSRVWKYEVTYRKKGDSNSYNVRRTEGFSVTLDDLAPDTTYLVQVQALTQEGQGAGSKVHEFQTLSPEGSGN

Row | SMILES | Kd
1 | CC(C)C[C@@H]1NC(=O)[C@H](CC(N)=O)NC(=O)[C@H](Cc2cccnc2)N(C)C(=O)[C@@H](Cc2cccc(C(N)=O)c2)NC(=O)CSC[C@@H](C(=O)N[C@H](CCCCNC(=O)CN2CCN3CCN4CCN(CC2)CC(=O)[O][Lu]([O]C(=O)C3)[O]C(=O)C4)C(N)=O)NC(=O)[C@H](CC(N)=O)NC(=O)[C@H]([C@@H](C)O)NC(=O)[C@H](Cc2cn(C)c3ccccc23)NC(=O)[C@H](CCCNC(N)=O)NC(=O)[C@H](Cc2cn(C)c3c(Cl)cccc23)NC(=O)[C@H](CC(N)=O)N(C)C(=O)[C@H](CC(N)=O)NC1=O [PDC_EphA2-00026426-C302] ({CH2CO}-[dPhe(3-CONH2)][NMe3Pal]NLN[NMeN][Trp(1-Me,7-Cl)][Cit][Trp(1-Me)]TNC[dK](DOTA(Lu))-NH2; thioether N-12) | < 1 nM
2 | CC(C)C[C@@H]1NC(=O)[C@H](CC(N)=O)NC(=O)[C@H](Cc2cccnc2)N(C)C(=O)[C@@H](Cc2cccc(C(N)=O)c2)NC(=O)CSC[C@@H](C(=O)N[C@@H](CCCCNC(=O)CN2CCN3CCN4CCN(CC2)CC(=O)[O][Lu]([O]C(=O)C3)[O]C(=O)C4)C(N)=O)NC(=O)[C@H](Cc2cn(C)c3ccccc23)NC(=O)[C@H](CCCCNC(N)=O)NC(=O)[C@H](Cc2cn(C)c3c(Cl)cccc23)NC(=O)[C@H](Cc2ccccc2)N(C)C(=O)[C@H](CO)NC1=O [PDC_EphA2-00026600-C301] ({CH2CO}-[dPhe(3-CONH2)][NMe3Pal]NLS[NMeF][Trp(1-Me,7-Cl)][hCit][Trp(1-Me)]CK(DOTA(Lu))-NH2; thioether N-10) | < 1 nM
3 | CC(C)C[C@@H]1NC(=O)[C@H](CC(N)=O)NC(=O)[C@H](Cc2cccnc2)N(C)C(=O)[C@@H](Cc2cccc(C(N)=O)c2)NC(=O)CSC[C@@H](C(=O)N[C@@H](CCCCNC(=O)CN2CCN3CCN4CCN(CC2)CC(=O)[O][Lu]([O]C(=O)C3)[O]C(=O)C4)C(N)=O)NC(=O)[C@H](Cc2cn(C)c3ccccc23)NC(=O)[C@H](CCCCNC(N)=O)NC(=O)[C@H](Cc2cn(C)c3c(Cl)cccc23)NC(=O)[C@H](Cc2cccnc2)N(C)C(=O)[C@H](CO)NC1=O [PDC_EphA2-00026601-C301] ({CH2CO}-[dPhe(3-CONH2)][NMe3Pal]NLS[NMe3Pal][Trp(1-Me,7-Cl)][hCit][Trp(1-Me)]CK(DOTA(Lu))-NH2; thioether N-10) | < 1 nM
4 | CN1C(=O)[C@H](CO)NC(=O)[C@H](C2CCC2)NC(=O)[C@H](CC(N)=O)NC(=O)[C@H](Cc2cccnc2)N(C)C(=O)[C@@H](Cc2cccc(C(N)=O)c2)NC(=O)CSC[C@@H](C(=O)N[C@@H](CCCCNC(=O)CN2CCN3CCN4CCN(CC2)CC(=O)[O][Lu]([O]C(=O)C3)[O]C(=O)C4)C(N)=O)NC(=O)[C@H](Cc2cn(C)c3ccccc23)NC(=O)[C@H](CCCCNC(N)=O)NC(=O)[C@H](Cc2cn(C)c3c(Cl)cccc23)NC(=O)[C@@H]1Cc1cccnc1 [PDC_EphA2-00026602-C301] ({CH2CO}-[dPhe(3-CONH2)][NMe3Pal]N[Gly(cBu)]S[NMe3Pal][Trp(1-Me,7-Cl)][hCit][Trp(1-Me)]CK(DOTA(Lu))-NH2; thioether N-10) | < 1 nM
5 | CN1C(=O)[C@H](CCC(=O)NC[C@H](O)[C@@H](O)[C@H](O)[C@H](O)CO)NC(=O)[C@H](C2CCC2)NC(=O)[C@H](CC(N)=O)NC(=O)[C@H](Cc2cccnc2)N(C)C(=O)[C@@H](Cc2cccc(C(N)=O)c2)NC(=O)CSC[C@@H](C(=O)N[C@@H](CCCCNC(=O)CN2CCN3CCN4CCN(CC2)CC(=O)[O][Lu]([O]C(=O)C3)[O]C(=O)C4)C(N)=O)NC(=O)[C@H](Cc2cn(C)c3ccccc23)NC(=O)[C@H](CCC(=O)NC[C@H](O)[C@@H](O)[C@H](O)[C@H](O)CO)NC(=O)[C@H](Cc2cn(C)c3c(Cl)cccc23)NC(=O)[C@@H]1Cc1cccnc1 [PDC_EphA2-00026604-C301] ({CH2CO}-[dPhe(3-CONH2)][NMe3Pal]N[Gly(cBu)]E(NH(1-deoxy-D-glucityl))[NMe3Pal][Trp(1-Me,7-Cl)]E(NH(1-deoxy-D-glucityl))[Trp(1-Me)]CK(DOTA(Lu))-NH2; thioether N-10) | < 1 nM
6 | CN1C(=O)[C@H](CCCC(N)=O)NC(=O)[C@H](C2CCC2)NC(=O)[C@H](CC(N)=O)NC(=O)[C@H](Cc2cccnc2)N(C)C(=O)[C@@H](Cc2cccc(C(N)=O)c2)NC(=O)CSC[C@@H](C(=O)N[C@@H](CCCCNC(=O)CN2CCN3CCN4CCN(CC2)CC(=O)[O][Lu]([O]C(=O)C3)[O]C(=O)C4)C(N)=O)NC(=O)[C@H](Cc2cn(C)c3ccccc23)NC(=O)[C@H](CCCCNC(=O)N2CCN(CC(=O)O)CC2)NC(=O)[C@H](Cc2cn(C)c3c(Cl)cccc23)NC(=O)[C@@H]1CCC(=O)O [PDC_EphA2-00026606-C301] ({CH2CO}-[dPhe(3-CONH2)][NMe3Pal]N[Gly(cBu)][Aad](NH2)[NMeE][Trp(1-Me,7-Cl)]K([CO-Piperazinyl(4-CH2COOH)])[Trp(1-Me)]CK(DOTA(Lu))-NH2; thioether N-10) | < 1 nM
7 | CN1C(=O)[C@H](CCC(=O)NC[C@H](O)[C@@H](O)[C@H](O)[C@H](O)CO)NC(=O)[C@H](C2CCC2)NC(=O)[C@H](CC(N)=O)NC(=O)[C@H](Cc2cccnc2)N(C)C(=O)[C@@H](Cc2cccc(C(N)=O)c2)NC(=O)CSC[C@@H](C(=O)N[C@@H](CCCCNC(=O)CN2CCN3CCN4CCN(CC2)CC(=O)[O][Lu]([O]C(=O)C3)[O]C(=O)C4)C(N)=O)NC(=O)[C@H](Cc2cn(C)c3ccccc23)NC(=O)[C@H](CCCCNC(N)=O)NC(=O)[C@H](Cc2cn(C)c3c(Cl)cccc23)NC(=O)[C@@H]1CCC(=O)O [PDC_EphA2-00026607-C301] ({CH2CO}-[dPhe(3-CONH2)][NMe3Pal]N[Gly(cBu)]E(NH(1-deoxy-D-glucityl))[NMeE][Trp(1-Me,7-Cl)][hCit][Trp(1-Me)]CK(DOTA(Lu))-NH2; thioether N-10) | < 1 nM

same assay, conditions: conjugates, Biacore T200 according to Example B15, Table B16; read-out: SPR Kd

Row | SMILES | Kd
8 | CC(C)C[C@@H]1NC(=O)[C@H](CC(N)=O)NC(=O)[C@H](Cc2cccnc2)N(C)C(=O)[C@@H](Cc2cccc(C(N)=O)c2)NC(=O)CSC[C@@H](C(=O)N[C@H](CCCCNC(=O)CN2CCN(CC(=O)O)CCN(CC(=O)O)CCN(CC(=O)O)CC2)C(N)=O)NC(=O)[C@H](CC(N)=O)NC(=O)[C@H]([C@@H](C)O)NC(=O)[C@H](Cc2cn(C)c3ccccc23)NC(=O)[C@H](CCC(=O)NC[C@H](O)[C@@H](O)[C@H](O)[C@H](O)CO)NC(=O)[C@H](Cc2cn(C)c3c(Cl)cccc23)NC(=O)[C@H](CC(N)=O)N(C)C(=O)[C@H](CC(N)=O)NC1=O.[Lu+3] [PDC_EphA2-00026425-C302] ({CH2CO}-[dPhe(3-CONH2)][NMe3Pal]NLN[NMeN][Trp(1-Me,7-Cl)]E(NH(1-deoxy-D-glucityl))[Trp(1-Me)]TNC[dK](DOTA)-NH2; thioether N-12) | < 1 nM
9 | CN1C(=O)[C@H](CCC(=O)NC[C@H](O)[C@@H](O)[C@H](O)[C@H](O)CO)NC(=O)[C@H](C2CCC2)NC(=O)[C@H](CC(N)=O)NC(=O)[C@H](Cc2cccnc2)N(C)C(=O)[C@@H](Cc2cccc(C(N)=O)c2)NC(=O)CSC[C@@H](C(=O)N[C@@H](CCCCNC(=O)CN2CCN(CC(=O)O)CCN(CC(=O)O)CCN(CC(=O)O)CC2)C(N)=O)NC(=O)[C@H](Cc2cn(C)c3ccccc23)NC(=O)[C@H](CCCCNC(=O)N2CCN(CC(=O)O)CC2)NC(=O)[C@H](Cc2cn(C)c3c(Cl)cccc23)NC(=O)[C@@H]1Cc1cccnc1.[Lu+3] [PDC_EphA2-00026603-C301] ({CH2CO}-[dPhe(3-CONH2)][NMe3Pal]N[Gly(cBu)]E(NH(1-deoxy-D-glucityl))[NMe3Pal][Trp(1-Me,7-Cl)]K([CO-Piperazinyl(4-CH2COOH)])[Trp(1-Me)]CK(DOTA)-NH2; thioether N-10) | < 1 nM

same assay, conditions: peptides, Biacore T200, 25 °C, Table B12; read-out: SPR Kd

Row | SMILES | Kd
10 | CC(C)C[C@@H]1NC(=O)[C@H](CC(N)=O)NC(=O)[C@H](Cc2cccnc2)N(C)C(=O)[C@@H](Cc2cccc(C(N)=O)c2)NC(=O)CSC[C@@H](C(N)=O)NC(=O)[C@H](CC(N)=O)NC(=O)[C@H]([C@@H](C)O)NC(=O)[C@H](Cc2cn(C)c3ccccc23)NC(=O)[C@H](CCC(=O)NC[C@H](O)[C@@H](O)[C@H](O)[C@H](O)CO)NC(=O)[C@H](Cc2cn(C)c3c(Cl)cccc23)NC(=O)[C@H](Cc2cccnc2)N(C)C(=O)[C@H](CC(N)=O)NC1=O [PDC_EphA2-00026424] ({CH2CO}-[dPhe(3-CONH2)][NMe3Pal]NLN[NMe3Pal][Trp(1-Me,7-Cl)]E(NH(1-deoxy-D-glucityl))[Trp(1-Me)]TNC-NH2; thioether N-12) | < 1 nM
11 | CC(C)C[C@@H]1NC(=O)[C@H](CC(N)=O)NC(=O)[C@H](Cc2cccnc2)N(C)C(=O)[C@@H](Cc2cccc(C(N)=O)c2)NC(=O)CSC[C@@H](C(N)=O)NC(=O)[C@H](CC(N)=O)NC(=O)[C@H]([C@@H](C)O)NC(=O)[C@H](Cc2cn(C)c3ccccc23)NC(=O)[C@H](CCCNC(N)=O)NC(=O)[C@H](Cc2cn(C)c3c(Cl)cccc23)NC(=O)[C@H](CC(N)=O)N(C)C(=O)[C@H](CC(N)=O)NC1=O [PDC_EphA2-00026426] ({CH2CO}-[dPhe(3-CONH2)][NMe3Pal]NLN[NMeN][Trp(1-Me,7-Cl)][Cit][Trp(1-Me)]TNC-NH2; thioether N-12) | < 1 nM
